Each block holds one molecule with its values, some of them ahead of it.
What was measured:
[1] = molecular target: T1, EGFR (Homo sapiens, UniProt P00533); conditions: 1 μM, duplicate, without preincubation; cited from earlier work
T1 construct: literature Ambit Biosciences

[2] = molecular target: T2, KIT(D816V) (Homo sapiens, UniProt P10721, D816V); conditions: 1 μM, duplicate, without preincubation; cited from earlier work
T2 construct: literature Ambit Biosciences

[3] = molecular target: T3, PCTK1 (Homo sapiens, UniProt Q00536); conditions: 1 μM, duplicate, without preincubation; cited from earlier work
T3 construct: literature Ambit Biosciences
T3 sequence (Q00536 whole entry): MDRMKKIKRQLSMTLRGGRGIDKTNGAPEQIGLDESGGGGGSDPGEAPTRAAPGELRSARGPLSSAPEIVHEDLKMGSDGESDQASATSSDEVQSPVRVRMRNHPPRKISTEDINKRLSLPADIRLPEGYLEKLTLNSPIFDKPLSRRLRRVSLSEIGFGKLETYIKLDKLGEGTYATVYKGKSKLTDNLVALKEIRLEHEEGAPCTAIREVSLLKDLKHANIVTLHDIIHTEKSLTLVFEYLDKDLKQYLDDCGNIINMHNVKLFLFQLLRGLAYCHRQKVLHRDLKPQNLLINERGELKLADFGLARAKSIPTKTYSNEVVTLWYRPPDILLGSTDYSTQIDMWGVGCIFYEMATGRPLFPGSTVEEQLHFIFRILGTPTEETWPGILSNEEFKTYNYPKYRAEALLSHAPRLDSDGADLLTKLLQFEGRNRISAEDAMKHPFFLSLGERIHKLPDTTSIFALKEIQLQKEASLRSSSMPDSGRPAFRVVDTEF

[4] = molecular target: CRAF (Homo sapiens, UniProt P04049); experiment: Nanosyn kinase profiling, % inhibition; format: biochemical; conditions: panel of 230 kinases
Procedure: (§1) “Inhibiting kinase activity” means to decrease the production of an phosphor-peptide by a particular kinase that can be separated by analytical techniques. For example, a comprehensive platform of kinase, protease, phosphatase and epigenetic assays that utilizes cutting-edge microfluidics and informatics tools to provide accurate and rapid results. Profiling data in this application were determined using these techniques at Nanosyn Inc. IC50 data were provided by Reaction Biology Inc using a P33 radiolabeled kinase assay.
(§2) A total of 15 new inhibitors were designed, prepared, and evaluated against a panel of 29 selected kinases in order to explore the applicability, SAR trends, and the tunability of this scaffold that could be imposed but this unique geometry, Table 21. Inhibitors I-1 to 1-12 all retained the 2-CF3-5-(4-F-phenyl) imidazole-4-carboxamide scaffold previously described (Deitrich, 2010), but explored different Hinge-Gatekeeper Motifs (HGM).
(§3) More modest activity for Aurora-A, FLT-1/4, KDR, KIT, PDGFRs was accompanied by better activity for B-Raf mutant and wild-type forms, Modest inhibition of MEK-1, BTK, c-Met, RET, and RON was also observed. […] Moreover, the observed inhibition of MEK-1 with 1-12 and TYK2 with I-6 represents additional activities against kinases for which no type-II inhibitors have been reported to date. […] To further evaluate the scope of inhibition, I-6 was evaluated against a larger panel of 230 kinases, Table-22.

[5] = molecular target: T4, DDR2 (Homo sapiens, UniProt Q16832); experiment: Nanosyn kinase profiling, % inhibition; format: biochemical; conditions: panel of 230 kinases
T4 sequence (Q16832 22-855): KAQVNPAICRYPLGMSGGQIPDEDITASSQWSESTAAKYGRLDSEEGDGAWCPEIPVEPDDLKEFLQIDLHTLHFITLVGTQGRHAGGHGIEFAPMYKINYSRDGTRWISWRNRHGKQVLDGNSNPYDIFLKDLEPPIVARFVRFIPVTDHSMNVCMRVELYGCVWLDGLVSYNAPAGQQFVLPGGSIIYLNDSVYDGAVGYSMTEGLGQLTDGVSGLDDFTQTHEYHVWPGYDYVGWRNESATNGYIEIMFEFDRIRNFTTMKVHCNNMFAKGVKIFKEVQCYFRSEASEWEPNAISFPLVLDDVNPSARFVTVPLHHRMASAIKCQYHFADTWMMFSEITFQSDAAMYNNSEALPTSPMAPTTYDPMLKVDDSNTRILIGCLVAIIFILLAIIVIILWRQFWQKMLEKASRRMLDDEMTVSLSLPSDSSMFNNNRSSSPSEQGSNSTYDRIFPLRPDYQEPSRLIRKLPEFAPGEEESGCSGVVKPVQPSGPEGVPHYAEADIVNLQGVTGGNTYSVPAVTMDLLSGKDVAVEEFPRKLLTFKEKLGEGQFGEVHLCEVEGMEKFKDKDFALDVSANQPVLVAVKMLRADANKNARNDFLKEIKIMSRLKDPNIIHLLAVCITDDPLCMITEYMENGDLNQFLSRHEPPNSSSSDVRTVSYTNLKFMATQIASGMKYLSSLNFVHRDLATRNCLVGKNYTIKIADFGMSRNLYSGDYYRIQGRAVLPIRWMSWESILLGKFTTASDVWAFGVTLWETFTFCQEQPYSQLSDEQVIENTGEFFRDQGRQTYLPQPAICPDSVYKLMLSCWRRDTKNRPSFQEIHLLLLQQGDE
Procedure: as §1, §2, §3

[6] = molecular target: EPHA2 (Homo sapiens, UniProt P29317); experiment: Nanosyn kinase profiling, % inhibition; format: biochemical; conditions: panel of 230 kinases
EPHA2, sequence (P29317 24-976): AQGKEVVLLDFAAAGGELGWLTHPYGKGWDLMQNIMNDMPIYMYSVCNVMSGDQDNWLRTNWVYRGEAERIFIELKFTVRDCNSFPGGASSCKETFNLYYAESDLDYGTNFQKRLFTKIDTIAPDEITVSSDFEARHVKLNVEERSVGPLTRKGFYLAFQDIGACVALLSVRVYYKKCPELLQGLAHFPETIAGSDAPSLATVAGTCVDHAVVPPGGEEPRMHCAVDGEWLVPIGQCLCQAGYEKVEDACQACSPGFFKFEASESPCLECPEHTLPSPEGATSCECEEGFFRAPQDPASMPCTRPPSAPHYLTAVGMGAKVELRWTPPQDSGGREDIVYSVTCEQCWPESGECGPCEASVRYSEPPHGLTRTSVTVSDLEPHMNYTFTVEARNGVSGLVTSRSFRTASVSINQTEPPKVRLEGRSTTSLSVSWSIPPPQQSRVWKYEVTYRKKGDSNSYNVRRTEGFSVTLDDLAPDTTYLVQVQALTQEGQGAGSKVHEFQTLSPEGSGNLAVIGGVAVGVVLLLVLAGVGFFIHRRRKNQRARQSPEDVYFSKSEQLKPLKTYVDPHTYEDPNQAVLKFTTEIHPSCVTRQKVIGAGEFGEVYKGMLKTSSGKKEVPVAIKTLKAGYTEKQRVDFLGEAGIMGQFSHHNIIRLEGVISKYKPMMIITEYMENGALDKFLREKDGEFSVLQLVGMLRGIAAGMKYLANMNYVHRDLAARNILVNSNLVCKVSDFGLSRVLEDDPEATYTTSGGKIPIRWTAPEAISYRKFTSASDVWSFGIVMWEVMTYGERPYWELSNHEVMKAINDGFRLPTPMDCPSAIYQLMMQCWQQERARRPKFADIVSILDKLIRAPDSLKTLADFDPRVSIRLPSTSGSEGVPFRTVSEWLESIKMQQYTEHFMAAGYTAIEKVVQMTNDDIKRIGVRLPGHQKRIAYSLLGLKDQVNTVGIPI
Procedure: as §1, §2, §3

[7] = molecular target: FLT1 (Homo sapiens, UniProt P17948); experiment: Nanosyn kinase profiling, % inhibition; format: biochemical; conditions: panel of 230 kinases
Procedure: as §1, §2, §3

[8] = molecular target: PDGFR-α (Homo sapiens, UniProt P16234); experiment: Nanosyn kinase profiling, % inhibition; format: biochemical; conditions: panel of 230 kinases
PDGFR-α, sequence (P16234 24-1089): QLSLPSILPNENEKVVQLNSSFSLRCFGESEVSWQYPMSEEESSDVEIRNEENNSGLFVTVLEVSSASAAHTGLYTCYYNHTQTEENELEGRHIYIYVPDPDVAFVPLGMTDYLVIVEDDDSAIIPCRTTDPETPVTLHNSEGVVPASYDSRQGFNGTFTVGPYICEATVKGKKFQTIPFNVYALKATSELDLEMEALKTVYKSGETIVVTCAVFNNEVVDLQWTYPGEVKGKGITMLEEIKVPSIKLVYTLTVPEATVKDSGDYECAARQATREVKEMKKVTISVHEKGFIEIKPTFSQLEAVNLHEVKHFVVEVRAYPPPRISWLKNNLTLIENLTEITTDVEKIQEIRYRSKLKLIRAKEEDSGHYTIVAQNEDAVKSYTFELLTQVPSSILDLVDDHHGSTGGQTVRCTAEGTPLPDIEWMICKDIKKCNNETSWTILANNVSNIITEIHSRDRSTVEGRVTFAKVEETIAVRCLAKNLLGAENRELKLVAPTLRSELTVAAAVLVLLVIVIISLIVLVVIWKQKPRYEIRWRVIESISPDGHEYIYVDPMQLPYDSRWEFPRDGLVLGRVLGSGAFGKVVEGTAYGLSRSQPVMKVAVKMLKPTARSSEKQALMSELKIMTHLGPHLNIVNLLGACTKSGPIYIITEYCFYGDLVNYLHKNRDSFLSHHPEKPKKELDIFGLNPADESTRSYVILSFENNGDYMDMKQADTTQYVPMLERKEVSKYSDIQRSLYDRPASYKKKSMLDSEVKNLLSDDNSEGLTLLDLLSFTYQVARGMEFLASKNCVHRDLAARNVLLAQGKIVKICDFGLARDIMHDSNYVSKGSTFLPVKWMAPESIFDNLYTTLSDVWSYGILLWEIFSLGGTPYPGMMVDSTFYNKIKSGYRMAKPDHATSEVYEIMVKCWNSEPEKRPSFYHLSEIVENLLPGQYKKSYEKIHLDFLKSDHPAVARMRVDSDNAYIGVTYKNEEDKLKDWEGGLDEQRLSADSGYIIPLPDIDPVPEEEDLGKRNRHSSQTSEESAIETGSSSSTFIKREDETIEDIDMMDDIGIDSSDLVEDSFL
Procedure: as §1, §2, §3

[9] = molecular target: TIE2 (Homo sapiens, UniProt Q02763); experiment: Nanosyn kinase profiling, % inhibition; format: biochemical; conditions: panel of 230 kinases
TIE2, sequence (Q02763 23-1124): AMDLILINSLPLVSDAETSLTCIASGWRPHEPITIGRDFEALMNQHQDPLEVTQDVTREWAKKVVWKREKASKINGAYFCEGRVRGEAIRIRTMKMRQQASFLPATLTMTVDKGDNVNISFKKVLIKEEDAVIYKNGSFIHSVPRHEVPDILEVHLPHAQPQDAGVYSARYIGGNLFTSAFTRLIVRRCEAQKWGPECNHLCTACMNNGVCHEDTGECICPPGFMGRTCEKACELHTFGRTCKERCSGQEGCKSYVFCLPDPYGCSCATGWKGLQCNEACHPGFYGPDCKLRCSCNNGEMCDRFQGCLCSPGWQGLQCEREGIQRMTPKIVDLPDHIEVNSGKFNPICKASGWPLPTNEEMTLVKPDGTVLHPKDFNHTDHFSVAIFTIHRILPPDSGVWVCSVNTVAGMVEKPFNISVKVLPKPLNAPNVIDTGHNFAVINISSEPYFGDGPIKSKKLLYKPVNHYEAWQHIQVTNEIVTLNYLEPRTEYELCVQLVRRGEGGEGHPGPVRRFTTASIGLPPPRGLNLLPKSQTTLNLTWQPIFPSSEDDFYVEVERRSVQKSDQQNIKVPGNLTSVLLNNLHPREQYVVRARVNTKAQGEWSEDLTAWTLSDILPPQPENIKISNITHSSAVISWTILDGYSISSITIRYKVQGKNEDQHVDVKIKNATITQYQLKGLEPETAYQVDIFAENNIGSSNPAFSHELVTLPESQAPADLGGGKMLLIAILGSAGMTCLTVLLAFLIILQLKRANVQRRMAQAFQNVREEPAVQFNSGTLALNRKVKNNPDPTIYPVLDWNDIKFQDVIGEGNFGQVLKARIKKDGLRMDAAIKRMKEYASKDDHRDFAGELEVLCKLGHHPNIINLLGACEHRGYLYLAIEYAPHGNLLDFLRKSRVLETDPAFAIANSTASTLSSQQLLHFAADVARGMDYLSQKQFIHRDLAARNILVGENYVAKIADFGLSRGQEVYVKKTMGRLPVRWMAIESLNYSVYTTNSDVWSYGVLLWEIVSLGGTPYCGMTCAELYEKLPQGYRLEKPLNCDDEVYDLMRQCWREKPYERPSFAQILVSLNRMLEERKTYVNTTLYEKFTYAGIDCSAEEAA
Procedure: as §1, §2, §3

[10] = molecular target: TYK2 (Homo sapiens, UniProt P29597); experiment: Nanosyn kinase profiling, % inhibition; format: biochemical; conditions: panel of 230 kinases
Procedure: as §1, §2, §3

T2 sequence (P10721 26-976 D816V): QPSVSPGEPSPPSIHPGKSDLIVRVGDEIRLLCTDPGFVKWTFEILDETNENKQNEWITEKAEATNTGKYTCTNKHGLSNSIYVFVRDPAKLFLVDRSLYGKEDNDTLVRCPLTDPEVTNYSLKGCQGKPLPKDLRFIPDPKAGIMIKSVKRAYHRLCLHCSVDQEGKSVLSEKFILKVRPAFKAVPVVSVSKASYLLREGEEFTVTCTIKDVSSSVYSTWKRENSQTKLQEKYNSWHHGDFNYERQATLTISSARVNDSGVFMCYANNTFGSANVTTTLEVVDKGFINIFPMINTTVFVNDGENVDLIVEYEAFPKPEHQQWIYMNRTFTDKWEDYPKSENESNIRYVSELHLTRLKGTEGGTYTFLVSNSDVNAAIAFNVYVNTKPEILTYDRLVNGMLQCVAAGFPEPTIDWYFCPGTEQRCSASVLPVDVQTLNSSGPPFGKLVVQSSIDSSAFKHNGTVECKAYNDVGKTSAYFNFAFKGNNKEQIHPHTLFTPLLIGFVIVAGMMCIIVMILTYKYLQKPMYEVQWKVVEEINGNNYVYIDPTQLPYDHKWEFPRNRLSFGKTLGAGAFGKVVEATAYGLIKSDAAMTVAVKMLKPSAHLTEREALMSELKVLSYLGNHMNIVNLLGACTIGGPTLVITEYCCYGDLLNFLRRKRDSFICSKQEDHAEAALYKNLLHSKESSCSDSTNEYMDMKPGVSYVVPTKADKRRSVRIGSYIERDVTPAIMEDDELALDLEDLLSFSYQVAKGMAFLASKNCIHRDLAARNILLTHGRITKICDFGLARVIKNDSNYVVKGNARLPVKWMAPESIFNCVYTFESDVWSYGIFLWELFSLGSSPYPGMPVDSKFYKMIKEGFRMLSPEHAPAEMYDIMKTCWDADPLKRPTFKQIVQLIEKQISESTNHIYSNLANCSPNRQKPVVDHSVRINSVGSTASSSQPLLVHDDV

SMILES: Cc1ccc(NC(=O)c2[nH]c(C(F)(F)F)nc2-c2ccc(F)cc2)cc1Nc1ccc2ncn(C)c(=O)c2c1 [KIN-035]
- inhibition of EGFR [1]: X (X > 25% @ 1 μM)

SMILES: Cc1ccc(-c2nc(C(F)(F)F)[nH]c2C(=O)Nc2ccc(C)c(Nc3ccc4ncn(C)c(=O)c4c3)c2)cc1F [KIN-038]
- inhibition of KIT(D816V) [2]: X (X > 25% @ 1 μM)
- inhibition of PCTK1 [3]: X (X > 25% @ 1 μM)

- inhibition at 5 µM [4]: ≥ 50%
- inhibition at 5 µM [5]: ≥ 50%
- inhibition at 5 µM [6]: ≥ 50%
- inhibition at 5 µM [7]: ≥ 50%
- inhibition at 5 µM [8]: ≥ 50%
- inhibition at 5 µM [9]: ≥ 50%
- inhibition at 5 µM [10]: ≥ 50%
SMILES: CNC(=O)c1cc(Oc2ccc(NC(=O)c3nc(C(F)(F)F)[nH]c3-c3ccc(F)cc3)cc2)ccn1 [Inhibitor I-6, 4-(4-{[5-(4-Fluoro-phenyl)-2-trifluoromethyl-3H-imidazole-4-carbonyl]-amino}-phenoxy)-pyridine-2-carboxylic acid methylamide]

— patent publication US9833455B2, “Preparation and methods of use for ortho-aryl 5-membered heteroaryl-carboxamide containing multi-targeted kinase inhibitors” (Spacefill Enterprises LLC, priority 2011, dated 2017)
